Results reported in ChEMBL document CHEMBL1201862, “PubChem BioAssay data set” (2004).
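Protocol summary: plate cells (96-well), add compound at 5 concentrations, incubate 48 h, interpolate endpoints linearly. GI50 is the concentration that inhibits growth by half.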 Activity calls are given as the source filed them. No stated cut-off is given here; in the data, active = GI50 up to about 1.1 µM and inactive = higher.

What was measured:
Experiment in all cases: NCI-60 cell line screen, 48 h
[1] = test system: MDA-MB-231
[2] = test system: CCRF-CEM
[3] = test system: U-251
[4] = test system: Malme-3M
[5] = test system: EKVX
[6] = test system: HL-60
[7] = test system: BT-549
[8] = test system: HOP-62
[9] = test system: COLO 205
[10] = test system: NCI/ADR-RES
[11] = test system: OVCAR-4
[12] = test system: OVCAR-3
[13] = test system: RXF 393
[14] = test system: ACHN
[15] = test system: SF-539
[16] = test system: SNB-19
[17] = test system: SN12C
[18] = test system: HCT-116
[19] = test system: SF-295
[20] = test system: SF-268

Compound	GI50 [1]	GI50 [2]	GI50 [3]	GI50 [4]	GI50 [5]	GI50 [6]	GI50 [7]	GI50 [8]	GI50 [9]	GI50 [10]	GI50 [11]	GI50 [12]	GI50 [13]	GI50 [14]	GI50 [15]	GI50 [16]	GI50 [17]	GI50 [18]	GI50 [19]	GI50 [20]
CC1=CC(=O)c2c(O)cccc2C1=O [PLUMBAGIN]	1.92 µM (inactive)	208 nM (active)	6.17 µM (inactive)	0.966 µM (active)	1.6 µM (inactive)	0.152 µM (active)	1.7 µM (inactive)	5.52 µM (inactive)	1.86 µM (inactive)	1.76 µM (inactive)	1.76 µM (inactive)	1.03 µM (active)	1.64 µM (inactive)	1.6 µM (inactive)	1.91 µM (inactive)	12 µM (inactive)	1.94 µM (inactive)	1.66 µM (inactive)	11.5 µM (inactive)	2.17 µM (inactive)
Clc1cc2ccccc2c2ccccc12	> 100 µM (inactive)	< 10 nM (active)	44 µM (inactive)	37 µM (inactive)	41.5 µM (inactive)	35.2 µM (inactive)	49.2 µM (inactive)	> 100 µM (inactive)	26.9 µM (inactive)	> 100 µM (inactive)	42.1 µM (inactive)	52.2 µM (inactive)	32.8 µM (inactive)	82.2 µM (inactive)	64 µM (inactive)	43 µM (inactive)	86.3 µM (inactive)	> 100 µM (inactive)	45.3 µM (inactive)	74 µM (inactive)
Cc1nc(O)nc(N/N=C/c2ccc(Cl)c(Cl)c2)c1C(=O)Nc1ccc(Cl)c(Cl)c1	2.44 µM (inactive)	8650 nM (inactive)	6.81 µM (inactive)	11.6 µM (inactive)	30 µM (inactive)	45.8 µM (inactive)	19.5 µM (inactive)	10.8 µM (inactive)	13.1 µM (inactive)	16.3 µM (inactive)	3.62 µM (inactive)	9.62 µM (inactive)	15.2 µM (inactive)	> 38.6 µM (inactive)	15.7 µM (inactive)	9.59 µM (inactive)	18.1 µM (inactive)	6.75 µM (inactive)	10.6 µM (inactive)	10.5 µM (inactive)
